Data as given in US20140093592A1, “[…] THE TREATMENT OF TREATMENT-[…] TREATMENT-RESISTANT DEPRESSION” (Janssen Pharmaceutica NV, priority 2012, published 2014).

Tests used:
[1] = tested on: patients with major depressive disorders; conditions: cited from earlier work
[2] = tested on: adult subjects with treatment-resistant depression (TRD); assay: Brief Psychiatric Rating Scale (BPRS) total score, same clinical study; conditions: 0.40 mg/kg
[3] = tested on: adult subjects with treatment-resistant depression (TRD); assay: Clinician-Assessed Dissociative Symptom Scale (CADSS) total score, same clinical study
[4] = 0.20 mg/kg, Day 1 (4 Hour), baseline Day 1
[5] = 0.20 mg/kg, Day 1 (40 Min), baseline Day 1
[6] = 0.20 mg/kg, Day 2, baseline Day 1
[7] = 0.20 mg/kg, Day 4 (4 Hour), baseline Day 4
[8] = 0.20 mg/kg, Day 4 (40 Min), baseline Day 4
[9] = 0.20 mg/kg, Day 5, baseline Day 4
[10] = 0.40 mg/kg, Day 1 (4 Hour), baseline Day 1
[11] = 0.40 mg/kg, Day 1 (40 Min), baseline Day 1
[12] = 0.40 mg/kg, Day 2, baseline Day 1
[13] = 0.40 mg/kg, Day 4 (4 Hour), baseline Day 4
[14] = 0.40 mg/kg, Day 4 (40 Min), baseline Day 4
[15] = 0.40 mg/kg, Day 5, baseline Day 4

CNC1(c2ccccc2Cl)CCCCC1=O (racemic) [ketamine]
Onset of rapid antidepressant effect [1]: within two hours

CN[C@]1(c2ccccc2Cl)CCCCC1=O.Cl [Esketamine, (S)-2-(2-chlorophenyl)-2-(methylamino)cyclohexanone hydrochloride]
BPRS total score, Mean (SE) ([2]; Day 1 (4 Hour)): 0.00 (0.000) | BPRS total score, Mean (SE) ([2]; Day 1 (15 Min.)): 1.91 (0.625) | BPRS total score, Mean (SE) ([2]; Day 1 (30 Min.)): 3.10 (0.960) | BPRS total score, Mean (SE) ([2]; Day 1 (40 Min.)): 4.33 (1.323) | BPRS total score, Mean (SE) ([2]; Day 1 (Predose)): 0.09 (0.091) | BPRS total score, Mean (SE) ([2]; Day 2): 0.00 (0.000) | BPRS total score, Mean (SE) ([2]; Day 4 (2 Hour)): 0.43 (0.335) | BPRS total score, Mean (SE) ([2]; Day 4 (4 Hour)): 0.29 (0.286) | BPRS total score, Mean (SE) ([2]; Day 4 (15 Min.)): 1.90 (0.668) | BPRS total score, Mean (SE) ([2]; Day 4 (30 Min.)): 3.32 (1.192) | BPRS total score, Mean (SE) ([2]; Day 4 (40 Min.)): 3.16 (1.248) | BPRS total score, Mean (SE) ([2]; Day 4 (Predose)): 0.05 (0.048) | BPRS total score, Mean (SE) ([2]; Day 5): 0.00 (0.000) | CADSS total score, Mean (SD) ([3]; 0.20 mg/kg, Day 1 (4 Hour)): 0.00 (0.000) | CADSS total score, Median ([3]; 0.20 mg/kg, Day 1 (4 Hour)): 0.00 | CADSS total score change from baseline, Mean (SD) [3, 4]: 0.00 (0.000) | CADSS total score change from baseline, Median [3, 4]: 0.00 | CADSS total score, Mean (SD) ([3]; 0.20 mg/kg, Day 1 (40 Min)): 15.56 (24.653) | CADSS total score, Median ([3]; 0.20 mg/kg, Day 1 (40 Min)): 4.00 | CADSS total score change from baseline, Mean (SD) [3, 5]: 15.56 (24.653) | CADSS total score change from baseline, Median [3, 5]: 4.00 | CADSS total score, Mean (SD) ([3]; 0.20 mg/kg, Day 1 (Predose)): 0.00 (0.000) | CADSS total score, Median ([3]; 0.20 mg/kg, Day 1 (Predose)): 0.00 | CADSS total score, Mean (SD) ([3]; 0.20 mg/kg, Day 2): 0.22 (0.667) | CADSS total score, Median ([3]; 0.20 mg/kg, Day 2): 0.00 | CADSS total score change from baseline, Mean (SD) [3, 6]: 0.22 (0.667) | CADSS total score change from baseline, Median [3, 6]: 0.00 | CADSS total score, Mean (SD) ([3]; 0.20 mg/kg, Day 4 (4 Hour)): 0.22 (0.667) | CADSS total score, Median ([3]; 0.20 mg/kg, Day 4 (4 Hour)): 0.00 | CADSS total score change from baseline, Mean (SD) [3, 7]: 0.22 (0.667) | CADSS total score change from baseline, Median [3, 7]: 0.00 | CADSS total score, Mean (SD) ([3]; 0.20 mg/kg, Day 4 (40 Min)): 6.38 (7.963) | CADSS total score, Median ([3]; 0.20 mg/kg, Day 4 (40 Min)): 4.00 | CADSS total score change from baseline, Mean (SD) [3, 8]: 6.38 (7.963) | CADSS total score change from baseline, Median [3, 8]: 4.00 | CADSS total score, Mean (SD) ([3]; 0.20 mg/kg, Day 4 (Predose)): 0.00 (0.000) | CADSS total score, Median ([3]; 0.20 mg/kg, Day 4 (Predose)): 0.00 | CADSS total score, Mean (SD) ([3]; 0.20 mg/kg, Day 5): 0.11 (0.333) | CADSS total score, Median ([3]; 0.20 mg/kg, Day 5): 0.00 | CADSS total score change from baseline, Mean (SD) [3, 9]: 0.11 (0.333) | CADSS total score change from baseline, Median [3, 9]: 0.00 | CADSS total score, Mean (SD) ([3]; 0.40 mg/kg, Day 1 (4 Hour)): 0.36 (1.206) | CADSS total score, Median ([3]; 0.40 mg/kg, Day 1 (4 Hour)): 0.00 | CADSS total score change from baseline, Mean (SD) [3, 10]: −0.55 (1.036) | CADSS total score change from baseline, Median [3, 10]: 0.00 | CADSS total score, Mean (SD) ([3]; 0.40 mg/kg, Day 1 (40 Min)): 22.00 (9.192) | CADSS total score, Median ([3]; 0.40 mg/kg, Day 1 (40 Min)): 23.00 | CADSS total score change from baseline, Mean (SD) [3, 11]: 21.56 (9.645) | CADSS total score change from baseline, Median [3, 11]: 23.00 | CADSS total score, Mean (SD) ([3]; 0.40 mg/kg, Day 1 (Predose)): 0.91 (1.921) | CADSS total score, Median ([3]; 0.40 mg/kg, Day 1 (Predose)): 0.00 | CADSS total score, Mean (SD) ([3]; 0.40 mg/kg, Day 2): 0.73 (1.849) | CADSS total score, Median ([3]; 0.40 mg/kg, Day 2): 0.00 | CADSS total score change from baseline, Mean (SD) [3, 12]: −0.18 (1.168) | CADSS total score change from baseline, Median [3, 12]: 0.00 | CADSS total score, Mean (SD) ([3]; 0.40 mg/kg, Day 4 (4 Hour)): 3.21 (8.929) | CADSS total score, Median ([3]; 0.40 mg/kg, Day 4 (4 Hour)): 0.00 | CADSS total score change from baseline, Mean (SD) [3, 13]: 3.16 (8.808) | CADSS total score change from baseline, Median [3, 13]: 0.00 | CADSS total score, Mean (SD) ([3]; 0.40 mg/kg, Day 4 (40 Min)): 15.67 (13.932) | CADSS total score, Median ([3]; 0.40 mg/kg, Day 4 (40 Min)): 10.00 | CADSS total score change from baseline, Mean (SD) [3, 14]: 15.67 (13.932) | CADSS total score change from baseline, Median [3, 14]: 10.00 | CADSS total score, Mean (SD) ([3]; 0.40 mg/kg, Day 4 (Predose)): 0.19 (0.680) | CADSS total score, Median ([3]; 0.40 mg/kg, Day 4 (Predose)): 0.00 | CADSS total score, Mean (SD) ([3]; 0.40 mg/kg, Day 5): 0.25 (0.550) | CADSS total score, Median ([3]; 0.40 mg/kg, Day 5): 0.00 | CADSS total score change from baseline, Mean (SD) [3, 15]: 0.05 (0.759) | CADSS total score change from baseline, Median [3, 15]: 0.00 | Time at which maximum mean overall BPRS and CADSS scores (CNS side effects) were observed ([3]; corresponding to the end of the infusion): 40 min | Time point at which BPRS and CADSS scores returned back to baseline values ([3]; postdose, after the start of infusion): 4 h
